In publication PMC4148593, “Activation of spleen cells by ArtinM may account for its immunomodulatory properties” (Cell and Tissue Research, 2014):

Molecular target: T1, rArtinM (recombinant ArtinM) (Artocarpus heterophyllus, UniProt Q2VPW4)
T1 construct: recombinant, expressed in E. coli BL21; monomer
T1 sequence (Q2VPW4 2-150): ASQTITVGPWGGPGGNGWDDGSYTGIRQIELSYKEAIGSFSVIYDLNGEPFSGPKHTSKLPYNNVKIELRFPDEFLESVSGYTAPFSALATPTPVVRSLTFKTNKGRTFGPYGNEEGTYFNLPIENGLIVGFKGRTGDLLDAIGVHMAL
Assay: MTT assay, inhibition of lectin-induced mitochondrial activity of murine spleen cells
Type: cell-based
Conditions: read-out: % inhibition at 50 mM

- inhibition at 50000 µM: 80%
Structure (SMILES): OC[C@H]1OC(O)[C@@H](O)[C@@H](O)[C@@H]1O (stereo partly drawn) [D-mannose]
